Activity calls are given as the source filed them.
How the values were obtained:
[1] = molecular target: T1, Mitochondrial peptide methionine sulfoxide reductase (Bos taurus, UniProt P54149); test: Absorbance-based biochemical high throughput dose response assay for activators of Methionine sulfoxide reductase A (MsrA).; format: functional
T1 sequence (P54149 whole entry): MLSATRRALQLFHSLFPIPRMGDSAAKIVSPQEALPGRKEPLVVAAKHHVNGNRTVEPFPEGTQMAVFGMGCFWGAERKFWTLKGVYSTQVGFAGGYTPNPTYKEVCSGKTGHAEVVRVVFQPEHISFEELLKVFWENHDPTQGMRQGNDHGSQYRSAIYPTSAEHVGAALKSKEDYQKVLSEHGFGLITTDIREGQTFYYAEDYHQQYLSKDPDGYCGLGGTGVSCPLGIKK

[2] = HepG2 cell cytotoxicity, dose response, cytotoxicity control for non-replicating M. tuberculosis project (AID 489018); format: functional; settings: Mycobacterium tuberculosis
[3] = molecular target: T2, Insulin-degrading enzyme (Homo sapiens, UniProt P14735); test: activators of recombinant IDE enzyme, dose response, counter-screen for IDE activator project, biochemical, fluorescence polarization (AID 588681)
T2 sequence (P14735 whole entry): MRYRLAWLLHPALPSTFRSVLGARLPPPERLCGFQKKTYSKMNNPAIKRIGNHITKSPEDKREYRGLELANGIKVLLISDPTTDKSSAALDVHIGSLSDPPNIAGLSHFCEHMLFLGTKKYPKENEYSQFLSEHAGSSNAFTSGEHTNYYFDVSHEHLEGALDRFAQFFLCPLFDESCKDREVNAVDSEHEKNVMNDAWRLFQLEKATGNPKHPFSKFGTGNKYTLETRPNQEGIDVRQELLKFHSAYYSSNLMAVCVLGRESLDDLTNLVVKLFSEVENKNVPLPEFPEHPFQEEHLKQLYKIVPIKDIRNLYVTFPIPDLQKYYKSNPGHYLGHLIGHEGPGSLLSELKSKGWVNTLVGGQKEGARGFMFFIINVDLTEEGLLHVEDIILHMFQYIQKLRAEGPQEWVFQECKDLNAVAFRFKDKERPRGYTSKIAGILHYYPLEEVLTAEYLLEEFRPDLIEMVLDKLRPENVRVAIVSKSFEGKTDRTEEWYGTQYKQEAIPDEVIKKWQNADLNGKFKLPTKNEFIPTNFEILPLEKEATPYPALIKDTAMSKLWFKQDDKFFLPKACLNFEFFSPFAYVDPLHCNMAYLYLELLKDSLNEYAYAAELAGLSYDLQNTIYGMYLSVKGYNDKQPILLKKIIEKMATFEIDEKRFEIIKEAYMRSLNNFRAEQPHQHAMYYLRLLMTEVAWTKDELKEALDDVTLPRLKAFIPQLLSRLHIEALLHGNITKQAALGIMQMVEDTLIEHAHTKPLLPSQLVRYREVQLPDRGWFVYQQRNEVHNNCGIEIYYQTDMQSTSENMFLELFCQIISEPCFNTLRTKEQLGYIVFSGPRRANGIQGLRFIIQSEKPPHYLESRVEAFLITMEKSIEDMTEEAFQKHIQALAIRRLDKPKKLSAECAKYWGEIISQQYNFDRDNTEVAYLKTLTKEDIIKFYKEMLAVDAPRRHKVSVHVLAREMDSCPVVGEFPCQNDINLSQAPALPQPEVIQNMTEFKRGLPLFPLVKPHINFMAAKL

[4] = molecular target: T2, Insulin-degrading enzyme; test: activators of endogenous IDE in HEK cells, dose response, cell-based, fluorescence polarization (AID 588439); format: functional
[5] = tested on: HEK293; test: optical interference in Abeta FP readout, dose response, artefact control for IDE activator project, biochemical, fluorescence polarization (AID 588442); format: functional, cell-based; settings: Homo sapiens
[6] = molecular target: SUMO-activating enzyme (Homo sapiens, UniProt Q9UBT2); test: SUMOylation inhibitor hit validation, confirmation, SUMOylation inhibitor project, biochemical, AlphaScreen (AID 2018); format: functional
[7] = molecular target: T3, Protein skinhead-1 (Caenorhabditis elegans, UniProt P34707); format: functional
T3 sequence (P34707 whole entry): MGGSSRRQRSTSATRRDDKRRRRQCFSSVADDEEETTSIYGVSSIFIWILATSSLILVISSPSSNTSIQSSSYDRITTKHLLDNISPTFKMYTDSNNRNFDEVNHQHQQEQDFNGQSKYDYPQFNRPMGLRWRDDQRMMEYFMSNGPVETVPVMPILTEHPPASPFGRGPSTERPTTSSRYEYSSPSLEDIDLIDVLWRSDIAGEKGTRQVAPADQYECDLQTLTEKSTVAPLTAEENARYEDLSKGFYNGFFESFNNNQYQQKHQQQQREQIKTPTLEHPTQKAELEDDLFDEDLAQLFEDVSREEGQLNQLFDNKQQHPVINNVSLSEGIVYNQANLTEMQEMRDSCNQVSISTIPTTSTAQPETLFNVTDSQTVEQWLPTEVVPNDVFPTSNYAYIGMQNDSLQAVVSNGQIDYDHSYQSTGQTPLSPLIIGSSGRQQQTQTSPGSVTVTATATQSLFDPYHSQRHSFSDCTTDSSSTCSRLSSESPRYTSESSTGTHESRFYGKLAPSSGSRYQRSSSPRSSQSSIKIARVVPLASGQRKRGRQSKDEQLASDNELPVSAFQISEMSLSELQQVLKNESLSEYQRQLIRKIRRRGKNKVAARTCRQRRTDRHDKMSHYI

[8] = growth suppression of PTEN-null colon cells, dose response, cell-based, HCT116 PTEN knockout (AID 1047); format: functional;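 note: HCT116 colon tumor cells with PTEN knocked out; cells exposed to compound for 60 hours before readout; potency for loss of cell viability measured by luminescence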
[9] = molecular target: T4, Tyrosyl-DNA phosphodiesterase 2 (Homo sapiens, UniProt O95551); test: human TDP2 enzyme inhibitors, dose response, biochemical, epi absorbance, IC50 (AID 743297)
T4 sequence (O95551 whole entry): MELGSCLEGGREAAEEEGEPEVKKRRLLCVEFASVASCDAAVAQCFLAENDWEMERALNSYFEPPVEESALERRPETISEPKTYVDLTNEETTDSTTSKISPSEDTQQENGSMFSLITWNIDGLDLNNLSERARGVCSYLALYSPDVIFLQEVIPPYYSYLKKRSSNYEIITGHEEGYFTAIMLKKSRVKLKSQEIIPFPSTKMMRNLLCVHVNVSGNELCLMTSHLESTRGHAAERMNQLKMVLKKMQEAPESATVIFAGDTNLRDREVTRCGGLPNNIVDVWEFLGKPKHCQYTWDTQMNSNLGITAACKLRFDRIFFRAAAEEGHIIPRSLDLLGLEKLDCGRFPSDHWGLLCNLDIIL

[10] = non-specific cell cytotoxicity, dose response, cytotoxicity control for PAX8 inhibitor project, plate reader, dry powder samples (AID 743021); format: functional, cell-based
[11] = tested on: HeLa; test: HeLa cell cytotoxicity, dose response, cytotoxicity control for MITF activator project, CellTiter-Glo luminescence, cherry-pick samples (AID 540259); format: functional, cell-based; settings: Homo sapiens
[12] = tested on: BJ; test: cytotoxicity toward BJ-TERT fibroblasts, dose response, cell-based, RAS-independent, luminescence (AID 1933); format: functional; settings: Homo sapiens
[13] = cells; format: functional, cell-based
[14] = cytotoxicity toward NIH3T3 fibroblasts, dose response, counter-screen, cell-based, ATP luminescence, mouse fibroblasts (AID 2010); format: functional;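 note: cells exposed to compound for about 90 hours before reading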
[15] = tested on: BJ; test: cytotoxicity toward BJ-TERT-LT-ST fibroblasts, dose response, cell-based, RAS-independent, luminescence (AID 1935); format: functional; settings: Homo sapiens;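 note: BJ fibroblasts immortalized with TERT plus LT and ST oncogenes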
[16] = cytotoxicity toward DRD oncogenic fibroblasts, dose response, cell-based, non-viral oncogenic, luminescence (AID 1934); format: functional; settings: Homo sapiens

SUMO-activating enzyme, sequence (Q9UBE0 whole entry): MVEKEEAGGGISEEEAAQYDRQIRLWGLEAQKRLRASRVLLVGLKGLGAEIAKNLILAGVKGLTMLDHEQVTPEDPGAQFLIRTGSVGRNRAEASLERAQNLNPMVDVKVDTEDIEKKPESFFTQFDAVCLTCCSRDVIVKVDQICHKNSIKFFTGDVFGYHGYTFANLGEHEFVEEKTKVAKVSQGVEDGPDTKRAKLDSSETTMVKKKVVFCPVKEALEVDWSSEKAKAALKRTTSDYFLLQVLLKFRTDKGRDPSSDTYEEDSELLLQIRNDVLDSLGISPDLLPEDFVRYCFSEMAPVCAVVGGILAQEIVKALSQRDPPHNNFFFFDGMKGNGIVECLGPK
SUMO-activating enzyme, sequence (Q9UBT2 whole entry): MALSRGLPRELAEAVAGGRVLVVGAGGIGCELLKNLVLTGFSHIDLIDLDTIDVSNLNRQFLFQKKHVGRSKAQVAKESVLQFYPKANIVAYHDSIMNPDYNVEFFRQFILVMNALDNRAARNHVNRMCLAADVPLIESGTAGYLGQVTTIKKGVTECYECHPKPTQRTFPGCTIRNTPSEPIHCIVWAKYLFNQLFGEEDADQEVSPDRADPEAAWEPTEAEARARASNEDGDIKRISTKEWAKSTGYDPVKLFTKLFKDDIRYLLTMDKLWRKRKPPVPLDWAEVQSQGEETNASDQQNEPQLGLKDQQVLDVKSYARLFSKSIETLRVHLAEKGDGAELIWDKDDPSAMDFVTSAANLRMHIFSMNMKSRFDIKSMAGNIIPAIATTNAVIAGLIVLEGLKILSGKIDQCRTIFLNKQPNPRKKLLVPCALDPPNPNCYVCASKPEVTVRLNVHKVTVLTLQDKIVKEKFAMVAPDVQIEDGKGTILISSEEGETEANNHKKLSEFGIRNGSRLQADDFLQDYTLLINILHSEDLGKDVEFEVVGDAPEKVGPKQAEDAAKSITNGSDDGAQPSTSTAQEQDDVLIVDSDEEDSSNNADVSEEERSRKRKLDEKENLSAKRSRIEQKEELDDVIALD

O=C(c1ccccc1)c1coc2c1C(=O)c1ccccc1C2=O
EC50 [1]: 37.7 µM (inactive)

CCOC(=O)C1=C(c2ccccc2)N=C(N)NC1c1ccc(OCc2ccc(Cl)cc2)c(OC)c1 (stereo unspecified)
CC50 [2]: 13.1 µM (active)
EC50 [3]: 52.1 µM (inactive)
EC50 [4]: 42.5 µM (inactive)
EC50 [5]: > 55.9 µM (inactive)

CCOC(=O)c1c(C)oc2c1c(/C=N/CCC(=O)O)c(O)c1ccccc12
IC50 [6]: 3.71 µM (active)
IC50 [7]: > 100 µM (inactive)

CCOC(=O)c1c(C)[nH]c2c1-c1ccccc1C(=O)C2=O
EC50 [8]: 0.487 µM (active)
IC50 [9]: 0.915 µM (active)
AC50 [10]: 4.93 µM (active)

COc1ccc2c(c1)CCC(/C=N/c1ccc3c(c1)OCO3)=C2O
AC50 [11]: 48.4 µM (active)

CC(=O)NC(c1ccc2ccccc2c1)c1ccc2cccnc2c1O (stereo unspecified)
EC50 [12]: 0.687 µM (active)
EC50 [13]: > 350 µM (not active)
EC50 [14]: 0.589 µM (active)
EC50 [15]: 6.07 µM (inconclusive)
EC50 [16]: 6.52 µM (active)

— ChEMBL document CHEMBL1201862, “PubChem BioAssay data set” (2004)
